# Measurements from publication PMC7156458, “Synthetic biology based construction of biological activity-related library of fungal decalin-containing diterpenoid pyrones” (Nature Communications, 2020).
# Molecular target: Aβ42 (Homo sapiens, UniProt P05067)
# Test: Th-T (thioflavin-T) assay of Aβ42 aggregation
# Assay type: biochemical
# Sequence of Aβ42 (P05067 672-713): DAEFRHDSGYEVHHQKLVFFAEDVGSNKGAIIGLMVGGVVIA
structure (smiles),measurement,setting,value
C=C1CC[C@@H]2[C@](C)(CC[C@H]3O[C@H](C=C(C)C)C[C@@]23C)[C@@H]1Cc1c(OC)oc(CO)c(C)c1=O [Compound 20],"Fig. 7a Th-T reading, mean of three wells","column suffix _20, reading M101",3.25
same,"Fig. 7a Th-T reading, mean of three wells","column suffix _20, reading M102",3.237
same,"Fig. 7a Th-T reading, mean of three wells","column suffix _20, reading M103",3.23
same,"Fig. 7a Th-T reading, mean of three wells","column suffix _20, reading M104",3.246
same,"Fig. 7a Th-T reading, mean of three wells","column suffix _20, reading M105",3.269
same,"Fig. 7a Th-T reading, mean of three wells","column suffix _20, reading M106",3.248
same,"Th-T fluorescence, mean of three wells (Fig. 7a)","column suffix _50, measurement M19",2.199
same,"Th-T fluorescence, mean of three wells (Fig. 7a)","column suffix _50, measurement M20",2.217
same,"Th-T fluorescence, mean of three wells (Fig. 7a)","column suffix _50, measurement M21",2.224
same,"Th-T fluorescence, mean of three wells (Fig. 7a)","column suffix _50, measurement M22",2.216
same,"Th-T fluorescence, mean of three wells (Fig. 7a)","column suffix _50, measurement M23",2.205
same,"Th-T fluorescence, mean of three wells (Fig. 7a)","column suffix _50, measurement M24",2.2076
same,"Th-T fluorescence, mean of three wells (Fig. 7a)","column suffix _50, measurement M25",2.21
same,"Th-T fluorescence, mean of three wells (Fig. 7a)","column suffix _50, measurement M26",2.22
same,"Th-T fluorescence, mean of three wells (Fig. 7a)","column suffix _50, measurement M27",2.2221
same,"Th-T fluorescence, mean of three wells (Fig. 7a)","column suffix _50, measurement M28",2.198
same,"Th-T fluorescence, mean of three wells (Fig. 7a)","column suffix _50, measurement M29",2.193
same,"Th-T assay signal, mean of three wells (Fig. 7a)","column suffix _50, reading M1",0.1908
same,"Th-T assay signal, mean of three wells (Fig. 7a)","column suffix _50, reading M2",0.1991
same,"Th-T assay signal, mean of three wells (Fig. 7a)","column suffix _50, reading M3",0.2032
same,"Th-T assay signal, mean of three wells (Fig. 7a)","column suffix _50, reading M4",0.2087
same,"Th-T assay signal, mean of three wells (Fig. 7a)","column suffix _50, reading M5",0.2172
same,"Th-T assay signal, mean of three wells (Fig. 7a)","column suffix _50, reading M6",0.2431
same,"Th-T assay signal, mean of three wells (Fig. 7a)","column suffix _50, reading M7",0.2722
same,"Th-T assay signal, mean of three wells (Fig. 7a)","column suffix _50, reading M8",0.3931
same,"Th-T assay signal, mean of three wells (Fig. 7a)","column suffix _50, reading M9",0.6726
same,"Th-T assay signal, mean of three wells (Fig. 7a)","column suffix _50, reading M10",1.1256
same,"Th-T assay signal, mean of three wells (Fig. 7a)","column suffix _50, reading M11",1.605
same,"Th-T assay signal, mean of three wells (Fig. 7a)","column suffix _50, reading M12",1.883
same,"Th-T assay signal, mean of three wells (Fig. 7a)","column suffix _50, reading M13",2.0174
same,"Th-T assay signal, mean of three wells (Fig. 7a)","column suffix _50, reading M14",2.101
same,"Th-T assay signal, mean of three wells (Fig. 7a)","column suffix _50, reading M15",2.147
same,"Th-T assay signal, mean of three wells (Fig. 7a)","column suffix _50, reading M16",2.173
same,"Th-T assay signal, mean of three wells (Fig. 7a)","column suffix _50, reading M17",2.183
same,"Th-T assay signal, mean of three wells (Fig. 7a)","column suffix _50, reading M18",2.192
same,"Fig. 7a Th-T reading, mean of three wells","column suffix _50, reading M85",2.067
same,"Fig. 7a Th-T reading, mean of three wells","column suffix _50, reading M86",2.077
same,"Fig. 7a Th-T reading, mean of three wells","column suffix _50, reading M87",2.082
same,"Fig. 7a Th-T reading, mean of three wells","column suffix _50, reading M88",2.092
same,"Fig. 7a Th-T reading, mean of three wells","column suffix _50, reading M89",2.095
same,"Fig. 7a Th-T reading, mean of three wells","column suffix _50, reading M90",2.096
same,"Fig. 7a Th-T reading, mean of three wells","column suffix _50, reading M91",2.085
same,"Fig. 7a Th-T reading, mean of three wells","column suffix _50, reading M92",2.089
same,"Fig. 7a Th-T reading, mean of three wells","column suffix _50, reading M93",2.088
same,"Fig. 7a Th-T reading, mean of three wells","column suffix _50, reading M94",2.094
same,"Fig. 7a Th-T reading, mean of three wells","column suffix _50, reading M95",2.0955
same,"Fig. 7a Th-T reading, mean of three wells","column suffix _50, reading M96",2.087
same,"Fig. 7a Th-T reading, mean of three wells","column suffix _50, reading M97",2.084
same,"Fig. 7a Th-T reading, mean of three wells","column suffix _50, reading M98",2.09
same,"Fig. 7a Th-T reading, mean of three wells","column suffix _50, reading M99",2.099
same,"Fig. 7a Th-T reading, mean of three wells","column suffix _50, reading M100",2.117
same,"Fig. 7a Th-T reading, mean of three wells","column suffix _50, reading M101",2.093
same,"Fig. 7a Th-T reading, mean of three wells","column suffix _50, reading M102",2.09
same,"Fig. 7a Th-T reading, mean of three wells","column suffix _50, reading M103",2.088
same,"Fig. 7a Th-T reading, mean of three wells","column suffix _50, reading M104",2.099
same,"Fig. 7a Th-T reading, mean of three wells","column suffix _50, reading M105",2.107
same,"Fig. 7a Th-T reading, mean of three wells","column suffix _50, reading M106",2.096
same,"Th-T fluorescence, mean of three wells","compound at 10, reading M41 of time course",3.473
same,"Th-T fluorescence, mean of three wells","compound at 10, reading M42 of time course",3.463
same,"Th-T fluorescence, mean of three wells","compound at 10, reading M43 of time course",3.47
same,"Th-T fluorescence, mean of three wells","compound at 10, reading M44 of time course",3.466
same,"Th-T fluorescence, mean of three wells","compound at 10, reading M45 of time course",3.48
same,"Th-T fluorescence, mean of three wells","compound at 10, reading M46 of time course",3.474
same,"Th-T fluorescence, mean of three wells","compound at 10, reading M47 of time course",3.473
same,"Th-T fluorescence, mean of three wells","compound at 10, reading M48 of time course",3.454
same,"Th-T fluorescence, mean of three wells","compound at 10, reading M49 of time course",3.4597
same,"Th-T fluorescence, mean of three wells","compound at 10, reading M50 of time course",3.479
same,"Th-T fluorescence, mean of three wells","compound at 10, reading M51 of time course",3.451
same,"Th-T fluorescence, mean of three wells","compound at 10, reading M52 of time course",3.467
same,"Th-T fluorescence, mean of three wells","compound at 10, reading M53 of time course",3.449
same,"Th-T fluorescence, mean of three wells","compound at 10, reading M54 of time course",3.468
same,"Th-T fluorescence, mean of three wells","compound at 10, reading M55 of time course",3.479
same,"Th-T fluorescence, mean of three wells","compound at 10, reading M56 of time course",3.4836
same,"Th-T fluorescence, mean of three wells","compound at 10, reading M57 of time course",3.456
same,"Th-T fluorescence, mean of three wells","compound at 10, reading M58 of time course",3.464
same,"Th-T fluorescence, mean of three wells","compound at 10, reading M59 of time course",3.461
same,"Th-T fluorescence, mean of three wells","compound at 10, reading M60 of time course",3.452
same,"Th-T fluorescence, mean of three wells","compound at 10, reading M61 of time course",3.461
same,"Th-T fluorescence, mean of three wells","compound at 10, reading M62 of time course",3.452
same,"Th-T fluorescence, mean of three wells","compound at 20, reading M41 of time course",3.421
same,"Th-T fluorescence, mean of three wells","compound at 20, reading M42 of time course",3.4495
same,"Th-T fluorescence, mean of three wells","compound at 20, reading M43 of time course",3.4108
same,"Th-T fluorescence, mean of three wells","compound at 20, reading M44 of time course",3.412
same,"Th-T fluorescence, mean of three wells","compound at 20, reading M45 of time course",3.402
same,"Th-T fluorescence, mean of three wells","compound at 20, reading M46 of time course",3.446
same,"Th-T fluorescence, mean of three wells","compound at 20, reading M47 of time course",3.447
same,"Th-T fluorescence, mean of three wells","compound at 20, reading M48 of time course",3.449
same,"Th-T fluorescence, mean of three wells","compound at 20, reading M49 of time course",3.413
same,"Th-T fluorescence, mean of three wells","compound at 20, reading M50 of time course",3.443
same,"Th-T fluorescence, mean of three wells","compound at 20, reading M51 of time course",3.447
same,"Th-T fluorescence, mean of three wells","compound at 20, reading M52 of time course",3.466
same,"Th-T fluorescence, mean of three wells","compound at 20, reading M53 of time course",3.442
same,"Th-T fluorescence, mean of three wells","compound at 20, reading M54 of time course",3.43
same,"Th-T fluorescence, mean of three wells","compound at 20, reading M55 of time course",3.418
same,"Th-T fluorescence, mean of three wells","compound at 20, reading M56 of time course",3.449
same,"Th-T fluorescence, mean of three wells","compound at 20, reading M57 of time course",3.4659
same,"Th-T fluorescence, mean of three wells","compound at 20, reading M58 of time course",3.449
same,"Th-T fluorescence, mean of three wells","compound at 20, reading M59 of time course",3.427
same,"Th-T fluorescence, mean of three wells","compound at 20, reading M60 of time course",3.432
same,"Th-T fluorescence, mean of three wells","compound at 20, reading M61 of time course",3.433
same,"Th-T fluorescence, mean of three wells","compound at 20, reading M62 of time course",3.454
same,"Th-T fluorescence, mean of three wells","compound at 50, reading M41 of time course",2.136
same,"Th-T fluorescence, mean of three wells","compound at 50, reading M42 of time course",2.134
same,"Th-T fluorescence, mean of three wells","compound at 50, reading M43 of time course",2.091
same,"Th-T fluorescence, mean of three wells","compound at 50, reading M44 of time course",2.118
same,"Th-T fluorescence, mean of three wells","compound at 50, reading M45 of time course",2.11
same,"Th-T fluorescence, mean of three wells","compound at 50, reading M46 of time course",2.107
same,"Th-T fluorescence, mean of three wells","compound at 50, reading M47 of time course",2.113
same,"Th-T fluorescence, mean of three wells","compound at 50, reading M48 of time course",2.125
same,"Th-T fluorescence, mean of three wells","compound at 50, reading M49 of time course",2.092
same,"Th-T fluorescence, mean of three wells","compound at 50, reading M50 of time course",2.091
same,"Th-T fluorescence, mean of three wells","compound at 50, reading M51 of time course",2.089
same,"Th-T fluorescence, mean of three wells","compound at 50, reading M52 of time course",2.103
same,"Th-T fluorescence, mean of three wells","compound at 50, reading M53 of time course",2.105
